Measurements as given in patent US10681909B2, “Herbicidal triazoles” (FMC Corporation, priority 2014, dated 2020).

Experiments:
soybean = test: Test C preemergence; type: in vivo, Glycine max; conditions: for Soybean plant response rating (0 to 100): Preemergence, visual rating after 13 to 15 d; for Plant response rating (scale of 0 to 100 where 0 is no effect and 100 is complete control): Soybean, preemergence, 250 g ai/ha
Description: (§1) Seeds of plant species selected from blackgrass (Alopecurus myosuroides), ryegrass, Italian (Italian ryegrass, Lolium multiflorum), wheat (winter wheat, Triticum aestivum), galium (catchweed bedstraw, Galium aparine), corn (Zea mays), crabgrass, large (large crabgrass, Digitaria sanguinalis), foxtail, giant, (giant foxtail, Setaria faberii), johnsongrass (Sorghum halepense), lambsquarters (Chenopodium album), morningglory (Ipomoea coccinea), nutsedge, yellow (yellow nutsedge, Cyperus esculentus), pigweed (Amaranthus retroflexus), ragweed (common ragweed, Ambrosia elatior), soybean (Glycine max), barnyardgrass (Echinochloa crus-galli), oilseed rape (Brassica napus), waterhemp (common waterhemp, Amaranthus rudis), and velvetleaf (Abutilon theophrasti) were planted into a blend of loam soil and sand and treated preemergence with test chemicals formulated in a non-phytotoxic solvent mixture which included a surfactant. At the same time, plants selected from these crop and weed species and also chickweed (common chickweed, Stellaria media), oat, wild (wild oat, Avena fatua), and kochia (Kochia scoparia), were planted in pots containing Sunshine Redi-Earth® planting medium comprising spaghnum peat moss, vermiculite, starter nutrients and dolomitic limestone and treated with postemergence applications of test chemicals formulated in the same manner. Plants ranged in height from 2 to 18 cm (1- to 4-leaf stage) for postemergence treatments. […] A dash (-) response means no test result.

blackgrass [1] = test: Test D preemergence; type: in vivo, Alopecurus myosuroides; conditions: for Plant response rating (0 to 100), Blackgrass: 16 g ai/ha, 0 is no effect, 100 is complete control; for Plant response rating: Blackgrass: scale 0 to 100
Description: (§2) Seeds of plant species selected from bluegrass (annual bluegrass, Poa annua), blackgrass (Alopecurus myosuroides), canarygrass (Phalaris minor), chickweed (common chickweed, Stellaria media), galium (catchweed bedstraw, Galium aparine), bromegrass, down (downy bromegrass, Bromus tectorum), Russian thistle (Salsola kali), field poppy (Papaver rhoeas), field violet (Viola arvensis), foxtail, green (green foxtail, Setaria viridis), deadnettle (henbit deadnettle, Lamium amplexicaule), ryegrass, Ital. (Italian ryegrass, Lolium multiflorum), kochia (Kochia scoparia), lambsquarters (Chenopodium album), oilseed rape (Brassica napus), pigweed (Amaranthus retroflexus), chamomile (scentless chamomile, Matricaria inodora), speedwell (bird's-eye speedwell, Veronica persica), barley, spring (spring barley, Hordeum vulgare), wheat, spring (spring wheat, Triticum aestivum), buckwheat, wild (wild buckwheat, Polygonum convolvulus), wild mustard (Sinapis arvensis), oat, wild (wild oat, Avena fatua), radish, wild (wild radish, Raphanus raphanistrum), […]), barley, winter (winter barley, Hordeum vulgare), and wheat, winter (winter wheat, Triticum aestivum) were planted into a silt loam soil and treated preemergence with test chemicals formulated in a non-phytotoxic solvent mixture which included a surfactant. At the same time, these species were planted in pots containing Sunshine Redi-Earth® planting medium comprising spaghnum peat moss, vermiculite, starter nutrients and dolomitic limestone and treated with postemergence applications of the test chemicals formulated in the same manner. Plants ranged in height from 2 to 18 cm (1- to 4-leaf stage). Treated plants and controls were maintained in a controlled growth environment for 14 to 21 d after which time all species were compared to controls and visually evaluated. […] A dash (-) response means no test result.

corn = test: Test C preemergence; type: in vivo, Zea mays; conditions: for Plant response rating (scale of 0 to 100 where 0 is no effect and 100 is complete control): Corn, preemergence; for Corn plant response rating (0 to 100): Preemergence, visual rating after 13 to 15 d
Description: as §1

blackgrass [2] = test: Test D postemergence; type: in vivo, Alopecurus myosuroides; conditions: scale 0 to 100
Description: as §2

velvetleaf = test: Test C preemergence; type: in vivo, Abutilon theophrasti; conditions: for Velvetleaf plant response rating (0 to 100): Preemergence, visual rating after 13 to 15 d; for Plant response rating (scale of 0 to 100 where 0 is no effect and 100 is complete control): Velvetleaf, preemergence, 250 g ai/ha
Description: as §1

crabgrass, large = test: Test C preemergence; type: in vivo, Digitaria sanguinalis; conditions: for Plant response rating (scale of 0 to 100 where 0 is no effect and 100 is complete control): Crabgrass, Large, preemergence; for Crabgrass, Large plant response rating (0 to 100): Preemergence, visual rating after 13 to 15 d
Description: as §1

canarygrass = test: Test D preemergence; type: in vivo, Phalaris minor; conditions: for Plant response rating (0 to 100), Canarygrass: 16 g ai/ha, 0 is no effect, 100 is complete control; for Plant response rating: Canarygrass: scale 0 to 100
Description: as §2

kochia = test: Test D preemergence; type: in vivo, Kochia scoparia; conditions: for Plant response rating (0 to 100), Kochia: 16 g ai/ha, 0 is no effect, 100 is complete control; for Plant response rating: Kochia: scale 0 to 100
Description: as §2

blackgrass [3] = test: Test C preemergence; type: in vivo, Alopecurus myosuroides; conditions: for Plant response rating (scale of 0 to 100 where 0 is no effect and 100 is complete control): Blackgrass, preemergence; for Blackgrass plant response rating (0 to 100): Preemergence, visual rating after 13 to 15 d
Description: as §1

| SMILES | Soybean plant response rating (0 to 100) (soybean; 31 g ai/ha) | Soybean plant response rating (0 to 100) (soybean; 62 g ai/ha) | Plant response rating (scale of 0 to 100 where 0 is no effect and 100 is complete control) (soybean) | Plant response rating (0 to 100), Blackgrass (blackgrass [1]) | Plant response rating: Blackgrass (blackgrass [1]; 31 g ai/ha) | Plant response rating: Blackgrass (blackgrass [1]; 62 g ai/ha) | Plant response rating: Blackgrass (blackgrass [1]; 125 g ai/ha) | Plant response rating (scale of 0 to 100 where 0 is no effect and 100 is complete control) (corn; 125 g ai/ha) | Plant response rating (scale of 0 to 100 where 0 is no effect and 100 is complete control) (corn; 250 g ai/ha) | Corn plant response rating (0 to 100) (corn; 31 g ai/ha) | Corn plant response rating (0 to 100) (corn; 62 g ai/ha) | Plant response rating: Blackgrass (blackgrass [2]; 16 g ai/ha) | Plant response rating: Blackgrass (blackgrass [2]; 31 g ai/ha) | Plant response rating: Blackgrass (blackgrass [2]; 62 g ai/ha) | Plant response rating: Blackgrass (blackgrass [2]; 125 g ai/ha) | Velvetleaf plant response rating (0 to 100) (velvetleaf; 31 g ai/ha) | Velvetleaf plant response rating (0 to 100) (velvetleaf; 62 g ai/ha) | Plant response rating (scale of 0 to 100 where 0 is no effect and 100 is complete control) (velvetleaf) | Plant response rating (scale of 0 to 100 where 0 is no effect and 100 is complete control) (crabgrass, large; 125 g ai/ha) | Plant response rating (scale of 0 to 100 where 0 is no effect and 100 is complete control) (crabgrass, large; 250 g ai/ha) | other results |
| --- | --- | --- | --- | --- | --- | --- | --- | --- | --- | --- | --- | --- | --- | --- | --- | --- | --- | --- | --- | --- | --- |
| FC(F)(F)COc1nc(-c2ccccc2)nn1Cc1ccnc(C(F)(F)F)c1 [Compound 24] | 0 | 5 | 35 | 20 | 45 | 50 | 65 | 25 | 40 | 0 | 10 | 25 | 35 | 45 | 65 | 30 | 45 | 60 | 100 | 100 | Crabgrass, Large plant response rating (0 to 100) (crabgrass, large; 31 g ai/ha): 98; Crabgrass, Large plant response rating (0 to 100) (crabgrass, large; 62 g ai/ha): 98; Plant response rating (0 to 100), Canarygrass (canarygrass): 55; Plant response rating: Canarygrass (canarygrass; 31 g ai/ha): 50; Plant response rating: Canarygrass (canarygrass; 62 g ai/ha): 60; Plant response rating: Canarygrass (canarygrass; 125 g ai/ha): 75; Plant response rating (0 to 100), Kochia (kochia): 85; Plant response rating: Kochia (kochia; 62 g ai/ha): 90; Plant response rating: Kochia (kochia; 125 g ai/ha): 90; Plant response rating (scale of 0 to 100 where 0 is no effect and 100 is complete control) (blackgrass [3]; 125 g ai/ha): 90; Plant response rating (scale of 0 to 100 where 0 is no effect and 100 is complete control) (blackgrass [3]; 250 g ai/ha): 90; Blackgrass plant response rating (0 to 100) (blackgrass [3]; 31 g ai/ha): 10; Blackgrass plant response rating (0 to 100) (blackgrass [3]; 62 g ai/ha): 60 |
| FC(F)(F)COc1nc(-c2ccc(Cl)cc2)nn1Cc1ccnc(C(F)(F)F)c1 [Compound 31] | 5 | 5 | 10 | 35 | 40 | 60 | 75 | 20 | 25 | 0 | 0 | 45 | 65 | 70 | 80 | 35 | 55 | 80 | 100 | 100 | Crabgrass, Large plant response rating (0 to 100) (crabgrass, large; 31 g ai/ha): 98; Crabgrass, Large plant response rating (0 to 100) (crabgrass, large; 62 g ai/ha): 98; Plant response rating (0 to 100), Canarygrass (canarygrass): 50; Plant response rating: Canarygrass (canarygrass; 31 g ai/ha): 85; Plant response rating: Canarygrass (canarygrass; 62 g ai/ha): 90; Plant response rating: Canarygrass (canarygrass; 125 g ai/ha): 100; Plant response rating (0 to 100), Kochia (kochia): 80; Plant response rating: Kochia (kochia; 62 g ai/ha): 90; Plant response rating: Kochia (kochia; 125 g ai/ha): 95; Plant response rating (scale of 0 to 100 where 0 is no effect and 100 is complete control) (blackgrass [3]; 125 g ai/ha): 90; Plant response rating (scale of 0 to 100 where 0 is no effect and 100 is complete control) (blackgrass [3]; 250 g ai/ha): 95; Blackgrass plant response rating (0 to 100) (blackgrass [3]; 31 g ai/ha): 80; Blackgrass plant response rating (0 to 100) (blackgrass [3]; 62 g ai/ha): 70 |
| CCOc1nc(-c2ccc(C(F)(F)F)cc2)nn1Cc1ccnc(C(F)(F)F)c1 [Compound 35, 4-[[5-ethoxy-3-[4-(trifluoromethyl)phenyl]-1H-1,2,4-triazole-1-yl]methyl]-2-(trifluoromethyl)pyridine] | 20 | 15 | 65 | 35 | 40 | 65 | 95 | 35 | 45 | 5 | 15 | 35 | 55 | 70 | 80 | 70 | 65 | 90 | 100 | 100 | Crabgrass, Large plant response rating (0 to 100) (crabgrass, large; 31 g ai/ha): 100; Crabgrass, Large plant response rating (0 to 100) (crabgrass, large; 62 g ai/ha): 100; Plant response rating (0 to 100), Canarygrass (canarygrass): 45; Plant response rating: Canarygrass (canarygrass; 31 g ai/ha): 95; Plant response rating: Canarygrass (canarygrass; 62 g ai/ha): 100; Plant response rating: Canarygrass (canarygrass; 125 g ai/ha): 100; Plant response rating (0 to 100), Kochia (kochia): 90; Plant response rating: Kochia (kochia; 62 g ai/ha): 90; Plant response rating: Kochia (kochia; 125 g ai/ha): 90; Plant response rating (scale of 0 to 100 where 0 is no effect and 100 is complete control) (blackgrass [3]; 125 g ai/ha): 90; Plant response rating (scale of 0 to 100 where 0 is no effect and 100 is complete control) (blackgrass [3]; 250 g ai/ha): 90; Blackgrass plant response rating (0 to 100) (blackgrass [3]; 31 g ai/ha): 90; Blackgrass plant response rating (0 to 100) (blackgrass [3]; 62 g ai/ha): 85 |
